Measured values published in paper PMC9412104, “Biochemical and Structural Insights on the Poplar Tau Glutathione Transferase GSTU19 and 20 Paralogs Binding Flavonoids” (Frontiers in Molecular Biosciences, 2022).
Read-outs that look alike come from different tables or passages of the source.

Key:
PtGSTU19 [1] = target: T1, PtGSTU19 (Populus trichocarpa, UniProt B9HKX9); assay: Peroxidase activity, NADPH coupled spectrophotometric assay; type: biochemical
Procedure: (§2) Peroxidase activity toward hydroperoxides was measured using an NADPH coupled spectrophotometric assay ([Pégeot et al., 2014]).
(§3) The measured velocities were corrected by subtracting the rate of the spontaneous nonenzymatic reaction, and three independent experiments were performed at each substrate concentration. The kinetic parameters (k cat and apparent K m) and the inhibition constants (K i) were, respectively, obtained by fitting the data to the nonlinear regression Michaelis–Menten model (kinetic assays) and to the mixed inhibition model (inhibition assays) in GraphPad Prism 8 software ([Copeland, 2013]).

PtGSTU20 [2] = target: T2, PtGSTU20 (Populus trichocarpa, UniProt D2X9R3); assay: as above; type: biochemical
Procedure: as §2, §3

PtGSTU19Y160A [3] = target: T3, PtGSTU19Y160A (Populus trichocarpa, UniProt B9HKX9, Y160A); conditions: PtGSTU19 Y160A, peroxidase activity, mean ± S.D., n = 3
Procedure: as §2
(§4) The measured velocities were corrected by subtracting the rate of the spontaneous nonenzymatic reaction, and three independent experiments were performed at each substrate concentration.

PtGSTU19Y160C [4] = target: T4, PtGSTU19Y160C (Populus trichocarpa, UniProt B9HKX9, Y160C); conditions: PtGSTU19 Y160C, peroxidase activity, mean ± S.D., n = 3
Procedure: as §2, §4

PtGSTU19Y160F [5] = target: T5, PtGSTU19Y160F (Populus trichocarpa, UniProt B9HKX9, Y160F); conditions: PtGSTU19 Y160F, peroxidase activity, mean ± S.D., n = 3
Procedure: as §2, §4

PtGSTU20C160Y [6] = target: T6, PtGSTU20C160Y (Populus trichocarpa, UniProt D2X9R3, C160Y); conditions: PtGSTU19 C160Y in Table S4, peroxidase activity, mean ± S.D., n = 3
Procedure: as §2, §4

PtGSTU19Y160A [7] = target: T3, PtGSTU19Y160A; assay: GSH-conjugation activity toward model substrates, variant; type: biochemical; conditions: PtGSTU19 Y160A, fixed saturating GSH, mean ± S.D.; for k cat: n = 3; for Km: n = 3, read-out: apparent KM
Procedure: as §2, §4

PtGSTU19Y160C [8] = target: T4, PtGSTU19Y160C; assay: as above; type: biochemical; conditions: PtGSTU19 Y160C, fixed saturating GSH, mean ± S.D.; for k cat: n = 3; for Km: n = 3, read-out: apparent KM
Procedure: as §2, §4

PtGSTU19Y160F [9] = target: T5, PtGSTU19Y160F; assay: as above; type: biochemical; conditions: PtGSTU19 Y160F, GSH-conjugation, fixed saturating GSH, mean ± S.D., n = 3; for Km: read-out: apparent KM
Procedure: as §2, §4

PtGSTU20C160Y [10] = target: T6, PtGSTU20C160Y; assay: as above; type: biochemical; conditions: PtGSTU19 C160Y in Table S4, fixed saturating GSH, mean ± S.D.; for k cat: n = 3; for Km: n = 3, read-out: apparent KM
Procedure: as §2, §4

PtGSTU19 [11] = target: T1, PtGSTU19; assay: GSH-conjugation activity toward model substrates; conditions: for k cat / k cat/K m: PtGSTU19, 25°C, fixed 1 mM GSH (0.7 mM with HNE), mean ± S.D., n = 3; for Catalytic efficiency: PtGSTU19
PtGSTU20 [12] = target: T2, PtGSTU20; assay: GSH-conjugation activity toward model substrates
PtGSTU19 [13] = target: T1, PtGSTU19; assay: Thermal shift assay (SYPRO orange); type: binding; conditions: for ΔTd (denaturation temperature difference): compound 100 µM, vs DMSO reference
Procedure: (§1) Assays were performed in a mixture (final volume of 25 µL) containing 30 mM Tris-HCl pH 8.0, 100 µM of chemical compounds (diluted in 8% DMSO) originating from a chemical library (Supplementary Tables S2, S3), 20 µM of PtGSTU19 or 20, and 5X SYPRO orange. […] The denaturation temperature, which corresponds to the temperature at which 50% of the total fluorescence is measured, was determined by the nonlinear regression Boltzmann sigmoidal model in GraphPad Prism 8 software for data obtained in the presence of potential ligands. This temperature was compared with a reference assay in which organic compounds were replaced by an equivalent DMSO concentration.

PtGSTU20 [14] = target: T2, PtGSTU20; assay: Thermal shift assay (SYPRO orange); type: binding
Procedure: as §1

PtGSTU19 [15] = target: T1, PtGSTU19; assay: Competition (inhibition) assay of GSH-conjugation with PITC as substrate; type: biochemical
Procedure: as §3

PtGSTU20 [16] = target: T2, PtGSTU20; assay: as above; type: biochemical
Procedure: as §3

[17] = enzyme concentration increased up to 10 µM
[18] = peroxidase activity, 1 mM GSH, pH 8.0, mean ± S.D., n = 3
[19] = read-out: apparent K m, peroxidase activity, 1 mM GSH, pH 8.0, mean ± S.D., n = 3
[20] = 25°C, fixed 1 mM GSH (0.7 mM with HNE), mean ± S.D., n = 3
[21] = PtGSTU19 apo form 20 µM, first chemical library screen (Table S2, Figure S9)
[22] = PtGSTU20 apo form 20 µM, compound 100 µM, vs DMSO reference, first chemical library screen (Table S2, Figure S9)
[23] = read-out: ΔTd (denaturation temperature difference)

T5 sequence (B9HKX9 2-219 Y160F): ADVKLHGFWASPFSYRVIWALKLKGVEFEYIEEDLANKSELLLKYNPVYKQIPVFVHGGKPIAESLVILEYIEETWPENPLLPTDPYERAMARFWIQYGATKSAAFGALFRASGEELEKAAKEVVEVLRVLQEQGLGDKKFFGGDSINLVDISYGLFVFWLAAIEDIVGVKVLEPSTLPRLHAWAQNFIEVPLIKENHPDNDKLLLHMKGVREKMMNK
T2 sequence (D2X9R3 entry or part of it): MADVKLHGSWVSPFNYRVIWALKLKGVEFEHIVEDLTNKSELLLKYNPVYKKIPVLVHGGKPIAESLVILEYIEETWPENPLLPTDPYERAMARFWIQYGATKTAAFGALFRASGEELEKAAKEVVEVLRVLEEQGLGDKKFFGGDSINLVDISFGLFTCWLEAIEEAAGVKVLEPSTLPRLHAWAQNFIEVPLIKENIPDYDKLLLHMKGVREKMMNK
T6 sequence (D2X9R3 2-219 C160Y): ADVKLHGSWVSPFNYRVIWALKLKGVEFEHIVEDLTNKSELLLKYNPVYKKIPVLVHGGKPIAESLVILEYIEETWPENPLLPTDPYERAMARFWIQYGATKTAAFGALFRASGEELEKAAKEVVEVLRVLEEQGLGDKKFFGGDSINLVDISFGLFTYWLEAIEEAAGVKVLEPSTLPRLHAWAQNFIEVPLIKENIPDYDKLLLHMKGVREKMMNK
T4 sequence (B9HKX9 2-219 Y160C): as the sequence (B9HKX9 2-219 Y160F) above, with F159C counted along it
T1 sequence (B9HKX9 entry or part of it): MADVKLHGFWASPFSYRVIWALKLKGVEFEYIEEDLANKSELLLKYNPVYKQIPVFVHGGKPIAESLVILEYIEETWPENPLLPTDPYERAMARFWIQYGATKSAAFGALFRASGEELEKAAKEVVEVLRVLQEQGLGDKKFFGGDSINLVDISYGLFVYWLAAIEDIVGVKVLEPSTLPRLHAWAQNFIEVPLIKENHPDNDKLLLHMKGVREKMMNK
T3 sequence (B9HKX9 2-219 Y160A): as the sequence (B9HKX9 2-219 Y160F) above, with F159A counted along it

Molecule: CC(C)(OO)c1ccccc1 [CuOOH, cumene hydroperoxide]
- Peroxidase activity (active on the peroxide) (PtGSTU19 [1]; [17]): weakly active
- Catalytic efficiency (PtGSTU19 [1]; peroxidase activity): 800 M⁻¹ s⁻¹
- k cat (PtGSTU19 [1]; [18]): 0.17 ± 0.01 s⁻¹
- k cat/K m (PtGSTU19 [1]; [18]): 0.85 ± 0.04 10^3 M^-1s^-1
- Km (PtGSTU19 [1]; [19]): 197 ± 31.1 µM
- Peroxidase activity (active on the peroxide) (PtGSTU20 [2]; [17]): weakly active
- Catalytic efficiency (PtGSTU20 [2]; peroxidase activity): 2400 M⁻¹ s⁻¹
- k cat (PtGSTU20 [2]; [18]): 0.24 ± 0.01 s⁻¹
- k cat/K m (PtGSTU20 [2]; [18]): 2.4 ± 0.1 10^3 M^-1s^-1
- Km (PtGSTU20 [2]; [19]): 98.6 ± 15.4 µM
- k cat (PtGSTU19Y160A [3]): 0.33 ± 0.02 s⁻¹
- Km (PtGSTU19Y160A [3]; read-out: apparent KM): 701 ± 82.7 µM
- k cat (PtGSTU19Y160C [4]): 0.45 ± 0.03 s⁻¹
- Km (PtGSTU19Y160C [4]; read-out: apparent KM): 1260 ± 140 µM
- k cat (PtGSTU19Y160F [5]): 0.49 ± 0.01 s⁻¹
- Km (PtGSTU19Y160F [5]; read-out: apparent KM): 347 ± 34.6 µM
- k cat (PtGSTU20C160Y [6]): 0.14 ± 0.01 s⁻¹
- Km (PtGSTU20C160Y [6]; read-out: apparent KM): 491 ± 97.5 µM

Molecule: O=[N+]([O-])c1ccc(Cl)c([N+](=O)[O-])c1 [CDNB]
- k cat (PtGSTU19Y160A [7]): 7.2 ± 0.9 s⁻¹
- Km (PtGSTU19Y160A [7]): 7040 ± 1380 µM
- k cat (PtGSTU19Y160C [8]): 14.0 ± 1.2 s⁻¹
- Km (PtGSTU19Y160C [8]): 4160 ± 620 µM
- k cat (PtGSTU19Y160F [9]): 17.3 ± 1.0 s⁻¹
- Km (PtGSTU19Y160F [9]): 3670 ± 390 µM
- k cat (PtGSTU20C160Y [10]): 0.59 ± 0.03 s⁻¹
- Km (PtGSTU20C160Y [10]): 2250 ± 229 µM
- k cat (PtGSTU19 [11]): 28.8 ± 2.2 s⁻¹
- k cat/K m (PtGSTU19 [11]): 8.9 ± 0.8 10^3 M^-1s^-1
- Catalytic efficiency of PtGSTU19 relative to PtGSTU20 (PtGSTU19 [11]; PtGSTU19 higher than PtGSTU20): 30 times
- Km (PtGSTU19 [11]; read-out: apparent K m, PtGSTU19, 25°C, fixed 1 mM GSH (0.7 mM with HNE), mean ± S.D., n = 3): 3390 ± 502 µM
- Catalytic efficiency (PtGSTU20 [12]): 300 M⁻¹ s⁻¹
- k cat (PtGSTU20 [12]; [20]): 0.59 ± 0.03 s⁻¹
- k cat/K m (PtGSTU20 [12]; [20]): 0.33 ± 0.01 10^3 M^-1s^-1
- Km (PtGSTU20 [12]; read-out: apparent K m, 25°C, fixed 1 mM GSH (0.7 mM with HNE), mean ± S.D., n = 3): 1780 ± 193 µM

Molecule: oxidized glutathione [GSSG]
- ΔTd (denaturation temperature difference) (PtGSTU19 [13]; [21]): little or no change
- ΔTd (denaturation temperature difference) (PtGSTU20 [14]; [22]): little or no change

Molecule: O=C(CCc1ccc(O)cc1)c1c(O)cc(O)cc1O [phloretin]
- ΔTm at 100 µM (PtGSTU20 [14]; PtGSTU20 20 µM, compound 100 µM, vs DMSO reference, flavonoid set (Table S3, Figure 4), read-out: ΔTd (denaturation temperature difference)): 3.11 °C

Molecule: O=c1cc(-c2ccccc2)oc2cc(O)c(O)c(O)c12 [Baicalein]
- Ki (PtGSTU19 [15]): 35.2 ± 2.8 µM
- Ki (PtGSTU20 [16]): 7.1 ± 0.6 µM
- ΔTm at 100 µM (PtGSTU19 [13]; read-out: ΔTd (denaturation temperature difference), PtGSTU19 20 µM, compound 100 µM, vs DMSO reference, flavonoid set (Table S3, Figure 4)): 0.73 ± 0.2 °C
- ΔTm at 100 µM (PtGSTU19 [13]; read-out: ΔTd (denaturation temperature difference), PtGSTU19 apo form 20 µM, compound 100 µM, vs DMSO reference, first chemical library screen (Table S2, Figure S9)): > 4 °C
- ΔTm at 100 µM (PtGSTU20 [14]; read-out: ΔTd (denaturation temperature difference), PtGSTU20 20 µM, compound 100 µM, vs DMSO reference, flavonoid set (Table S3, Figure 4)): 3.4 °C
- ΔTm at 100 µM (PtGSTU20 [14]; read-out: ΔTd (denaturation temperature difference), PtGSTU20 apo form 20 µM, compound 100 µM, vs DMSO reference, first chemical library screen (Table S2, Figure S9)): > 4 °C

Molecule: S=C=NCCc1ccccc1 [PITC, phenethyl-isothiocyanate]
- k cat (PtGSTU19Y160A [7]): 2.3 ± 0.03 s⁻¹
- Km (PtGSTU19Y160A [7]): 49.2 ± 2.6 µM
- k cat (PtGSTU19Y160C [8]): 3.05 ± 0.05 s⁻¹
- Km (PtGSTU19Y160C [8]): 40.3 ± 3 µM
- k cat (PtGSTU19Y160F [9]): 3.9 ± 0.07 s⁻¹
- Km (PtGSTU19Y160F [9]): 31.1 ± 2.5 µM
- k cat (PtGSTU20C160Y [10]): 2.03 ± 0.08 s⁻¹
- Km (PtGSTU20C160Y [10]): 58.3 ± 9.2 µM
- k cat (PtGSTU19 [11]): 3.8 ± 0.1 s⁻¹
- Catalytic efficiency (PtGSTU20 [12]): 88900 M⁻¹ s⁻¹
- k cat (PtGSTU20 [12]; [20]): 5.1 ± 0.1 s⁻¹

Molecule: CCCC(=O)Oc1ccc([N+](=O)[O-])cc1 [PNP-butyrate, 4-nitrophenyl-butyrate]
- Catalytic efficiency (PtGSTU19 [11]): 100 M⁻¹ s⁻¹
- k cat (PtGSTU19 [11]): 0.040 ± 0.001 s⁻¹
- k cat/K m (PtGSTU19 [11]): 0.100 ± 0.002 10^3 M^-1s^-1
- Catalytic efficiency (PtGSTU20 [12]): 100 M⁻¹ s⁻¹
- k cat (PtGSTU20 [12]; [20]): 0.020 ± 0.001 s⁻¹

Molecule: S=C=NCc1ccccc1 [BITC, benzyl-isothiocyanate]
- k cat (PtGSTU19Y160A [7]): 6.5 ± 0.2 s⁻¹
- Km (PtGSTU19Y160A [7]): 30.6 ± 4.5 µM
- k cat (PtGSTU19Y160C [8]): 6.7 ± 0.1 s⁻¹
- Km (PtGSTU19Y160C [8]): 54.1 ± 3.3 µM
- k cat (PtGSTU19Y160F [9]): 8.3 ± 0.2 s⁻¹
- Km (PtGSTU19Y160F [9]): 36.3 ± 3.3 µM
- k cat (PtGSTU20C160Y [10]): 4.9 ± 0.1 s⁻¹
- Km (PtGSTU20C160Y [10]): 71.4 ± 9.6 µM
- Catalytic efficiency (PtGSTU19 [11]): 132200 M⁻¹ s⁻¹
- k cat (PtGSTU19 [11]): 7.0 ± 0.1 s⁻¹
- k cat (PtGSTU20 [12]; [20]): 10.4 ± 0.3 s⁻¹

Molecule: glutathionyl-phenylacetophenone [GS-PAP]
- Ki (PtGSTU19 [15]; PtGSTU19, GSH-conjugating reaction with PITC as substrate, mixed model inhibition, ND = no inhibition was detected, read-out: K i): 2.3 ± 0.8 µM
- Ki (PtGSTU20 [16]; PtGSTU20, GSH-conjugating reaction with PITC as substrate, mixed model inhibition, ND = no inhibition was detected, read-out: K i): 5.1 ± 2.1 µM
- ΔTd (denaturation temperature difference) (PtGSTU19 [13]; PtGSTU19 20 µM, flavonoid set (Table S3, Figure 4)): 4.99 ± 0.28 °C
- ΔTd (denaturation temperature difference) (PtGSTU19 [13]; [21]): +8.39 °C
- ΔTd (denaturation temperature difference) (PtGSTU20 [14]; PtGSTU20 20 µM, compound 100 µM, vs DMSO reference, flavonoid set (Table S3, Figure 4)): 6.48 ± 0.17 °C
- ΔTd (denaturation temperature difference) (PtGSTU20 [14]; [22]): +9.62 °C

Molecule: O=c1c(O)c(-c2ccc(O)c(O)c2)oc2cc(O)cc(O)c12 [quercetin]
- ΔTm at 100 µM (PtGSTU19 [13]; [23]): > 4 °C
- ΔTm at 100 µM (PtGSTU20 [14]; [23]): > 4 °C
